Where two headings read alike, the source gives them in different places.
System: 284 cell lines
Experiment: cells
Conditions: Homo sapiens
Experimental: A screen of 284 cell lines to assess the antiproliferative effect of EHMT2 inhibition was conducted by treating cell lines in 384-well format with a half-log step dilutions of Compound 205 over 10 concentrations with a maximum concentration of 0.1% v/v DMSO. Cells were plated on Day 0 and treated with compound on Day 1. Culture medium was replaced on day 7 and cells redosed. After 10-day incubation, cells were fixed and stained with nuclear dye. Automated fluorescence microscopy was carried out using a Molecular Devices ImageXpress Micro XL high-content imager, and images were collected with a 4× objective. 16-bit TIFF images were acquired and analyzed with MetaXpress 5.1.0.41 software. Cell proliferation was measured by the fluorescence intensity of the incorporated nuclear dye. Cell count IC50 is the test compound concentration at 50% of maximal response of the untreated control.

With `CNc1cc(C)nc(Nc2ccc(OC)c(OCCCN3CCCC3)c2)n1` [Compound 205] the IC50 (DU-145, read-out: Cell Count IC50, DU145, Prostate) was > 10 µM, the IC50 (Daoy, read-out: Cell Count IC50, Daoy, Central Nervous System, Medulloblastoma) was 1 to 10 µM and the IC50 (Daudi, read-out: Cell Count IC50, Daudi, Hematopoietic, Lymphoma) was 1 to 10 µM. The IC50 (Detroit 562, read-out: Cell Count IC50, Detroit 562, Head and Neck) was 1 to 10 µM, the IC50 (DoTc2-4510, read-out: Cell Count IC50, DoTc2 4510, Female GU, Cervix) was 1 to 10 µM and the IC50 (EFM-19, read-out: Cell Count IC50, EFM-19, Breast) was > 10 µM. For the same compound, the IC50 (FaDu, read-out: Cell Count IC50, FaDu, Head and Neck) was 1 to 10 µM, the IC50 (G292, read-out: Cell Count IC50, G-292, clone A141B1, Bone, Osteosarcoma) was > 10 µM and the IC50 (G-361, read-out: Cell Count IC50, G-361, Skin, Melanoma) was 1 to 10 µM. For the same compound, the IC50 (G-401, read-out: Cell Count IC50, G-401, Kidney) was > 10 µM, the IC50 (G-402, read-out: Cell Count IC50, G-402, Kidney) was 1 to 10 µM and the IC50 (HCT-8, read-out: Cell Count IC50, HCT-8, Colon) was > 10 µM. For the same compound, the IC50 (HCT-15, read-out: Cell Count IC50, HCT-15, Colon) was > 10 µM, the IC50 (HCT-116, read-out: Cell Count IC50, HCT-116, Colon) was > 10 µM and the IC50 (HEC-1-A, read-out: Cell Count IC50, HEC-1-A, Female GU, Uterus) was 1 to 10 µM. For the same compound, the IC50 (HEL 92.1.7, read-out: Cell Count IC50, HEL-92-1-7, Hematopoietic, Leukemia) was > 10 µM, the IC50 (HMCB, read-out: Cell Count IC50, HMCB, Skin, Melanoma) was > 10 µM and the IC50 (HPAF-II, read-out: Cell Count IC50, HPAF-II, Pancreas) was 1 to 10 µM. The IC50 (HT1197, read-out: Cell Count IC50, HT-1197, Bladder) was 1 to 10 µM, the IC50 (HT-29, read-out: Cell Count IC50, HT-29, Colon) was 1 to 10 µM and the IC50 (HT-1080, read-out: Cell Count IC50, HT-1080, Soft & Connective Tissue, Sarcoma) was > 10 µM. The IC50 (HT-1376, read-out: Cell Count IC50, HT1376, Bladder) was > 10 µM, the IC50 (HeLa, read-out: Cell Count IC50, HeLa, Female GU, Cervix) was > 10 µM and the IC50 (HepG2, read-out: Cell Count IC50, HepG2, Liver) was > 10 µM. It also gave an IC50 (Hs 294T, read-out: Cell Count IC50, Hs 294T, Skin, Melanoma) of 1 to 10 µM, an IC50 (Hs 683, read-out: Cell Count IC50, Hs 683, Central Nervous System, Glioma) of 1 to 10 µM and an IC50 (Hs 695T, read-out: Cell Count IC50, Hs 695T, Skin, Melanoma) of 1 to 10 µM. The IC50 (Hs746T, read-out: Cell Count IC50, HS 746T, Stomach) was > 10 µM, the IC50 (Hs-578T, read-out: Cell Count IC50, Hs 578T, Breast) was > 10 µM and the IC50 (HuCCT-1, read-out: Cell Count IC50, HuCCT1, Liver) was 1 to 10 µM. For the same compound, the IC50 (HuP-T4, read-out: Cell Count IC50, HuP-T4, Pancreas) was 1 to 10 µM, the IC50 (HuTu80, read-out: Cell Count IC50, HuTu 80, Duodenum) was 1 to 10 µM and the IC50 (JEG-3, read-out: Cell Count IC50, JEG-3, Placenta) was > 10 µM. The IC50 (JIYOYE, read-out: Cell Count IC50, Jiyoye, Hematopoietic, Lymphoma) was > 10 µM, the IC50 (JeKo-1, read-out: Cell Count IC50, JeKo-1, Hematopoietic, Lymphoma) was 1 to 10 µM and the IC50 (Jurkat, read-out: Cell Count IC50, Jurkat, Hematopoietic, Leukemia) was 1 to 10 µM. For the same compound, the IC50 (K562, read-out: Cell Count IC50, K562, Hematopoietic, Leukemia) was 1 to 10 µM, the IC50 (KATO III, read-out: Cell Count IC50, KATO III, Stomach) was 1 to 10 µM and the IC50 (KU812, read-out: Cell Count IC50, KU812, Hematopoietic, Leukemia) was > 10 µM. For the same compound, the IC50 (LNCaP, read-out: Cell Count IC50, LNCaP, Prostate) was 0.1 to 1 µM, the IC50 (LS174T, read-out: Cell Count IC50, LS-174T, Colon) was 1 to 10 µM and the IC50 (LS-123, read-out: Cell Count IC50, LS123, Colon) was 1 to 10 µM. The IC50 (LS-411N, read-out: Cell Count IC50, LS411N, Colon) was 1 to 10 µM, the IC50 (LS-513, read-out: Cell Count IC50, LS513, Colon) was 1 to 10 µM and the IC50 (LS-1034, read-out: Cell Count IC50, LS1034, Colon) was > 10 µM. The IC50 (M059J, read-out: Cell Count IC50, M059J, Central Nervous System, Glioma) was > 10 µM, the IC50 (MC-IXC, read-out: Cell Count IC50, MC-IXC, Central Nervous System, Neuroblastoma) was > 10 µM and the IC50 (MCF7, read-out: Cell Count IC50, MCF7, Breast) was > 10 µM. For the same compound, the IC50 (MDA-MB-231, read-out: Cell Count IC50, MDA MB 231, Breast) was 1 to 10 µM, the IC50 (MDA-MB-415, read-out: Cell Count IC50, MDA-MB-415, Breast) was > 10 µM and the IC50 (MDA-MB-436, read-out: Cell Count IC50, MDA-MB-436, Breast) was > 10 µM. The IC50 (MDA-MB-453, read-out: Cell Count IC50, MDA MB 453, Breast) was 1 to 10 µM, the IC50 (MDA-MB-468, read-out: Cell Count IC50, MDA MB 468, Breast) was 1 to 10 µM and the IC50 (ME-180, read-out: Cell Count IC50, ME-180, Female GU, Cervix) was > 10 µM. It also gave an IC50 (MEG-01, read-out: Cell Count IC50, MEG01, Hematopoietic, Leukemia) of 1 to 10 µM, an IC50 (MES-SA, read-out: Cell Count IC50, MES-SA, Soft & Connective Tissue, Sarcoma) of 1 to 10 µM and an IC50 (MG-63, read-out: Cell Count IC50, MG-63, Bone, Osteosarcoma) of 1 to 10 µM. For the same compound, the IC50 (MHH-PREB-1, read-out: Cell Count IC50, MHH-PREB-1, Hematopoietic, Leukemia) was 1 to 10 µM, the IC50 (MIA PaCa-2, read-out: Cell Count IC50, Mia PaCa-2, Pancreas) was 1 to 10 µM and the IC50 (MOLT-3, read-out: Cell Count IC50, MOLT-3, Hematopoietic, Leukemia) was 1 to 10 µM. For the same compound, the IC50 (MOLT-16, read-out: Cell Count IC50, MOLT-16, Hematopoietic, Leukemia) was 1 to 10 µM, the IC50 (MV4-11, read-out: Cell Count IC50, MV-4-11, Hematopoietic, Leukemia) was 0.1 to 1 µM and the IC50 (Malme-3M, read-out: Cell Count IC50, MALME3M, Skin, Melanoma) was > 10 µM. For the same compound, the IC50 (MeWo, read-out: Cell Count IC50, MeWo, Skin, Melanoma) was 1 to 10 µM, the IC50 (NALM-6, read-out: Cell Count IC50, NALM-6, Hematopoietic, Leukemia) was 1 to 10 µM and the IC50 (NCI-H69, read-out: Cell Count IC50, NCI-H69, Lung, SCLC) was 0.1 to 1 µM. For the same compound, the IC50 (NCI-H292, read-out: Cell Count IC50, NCI-H292, Lung, NSCLC) was > 10 µM, the IC50 (NCI-H295R, read-out: Cell Count IC50, NCI-H295R, Endocrine, Adrenal gland) was > 10 µM and the IC50 (NCI-H441, read-out: Cell Count IC50, NCIH441, Lung, NSCLC) was > 10 µM. The IC50 (NCI-H446, read-out: Cell Count IC50, NCIH446, Lung, SCLC) was 1 to 10 µM and the IC50 (NCI-H460, read-out: Cell Count IC50, NCI-H460, Lung, NSCLC) was > 10 µM.
